According to US12064443B2 (priority 2021, dated 2024):

Experiments:
[1] = cited from earlier work
[2] = system: Cholera toxin (CTx) challenge; settings: mouse, in vivo

## O=S(=O)([O-])OC[C@H]1O[C@@](COS(=O)(=O)[O-])(O[C@H]2O[C@H](COS(=O)(=O)[O-])[C@@H](OS(=O)(=O)[O-])[C@H](OS(=O)(=O)[O-])[C@H]2OS(=O)(=O)[O-])[C@@H](OS(=O)(=O)[O-])[C@@H]1OS(=O)(=O)[O-].[K+].[K+].[K+].[K+].[K+].[K+].[K+].[K+] [Sucrose octasulfate-potassium salt]
[1]
  Solubility in water: freely soluble

## Sucralfate
[2]
  Effect on volume of intestinal secretion upon CTx challenge: neither polyphenol nor sucralfate reduced the volume of intestinal secretion
[1]
  Solubility in water: poorly soluble
